Experimental data published in PMC11237612, “Mutation of the peptide-regulated transcription factor ComR for amidated peptide specificity and heterologous function in Lactiplantibacillus plantarum WCFS1” (Microbiology Spectrum, 2024).

System: S. thermophilus ComR containing five mutations (R92G, V205A, S248G, S289K, and I290T)
Experiment: GFP signal in E. coli expressing five-mutation ComR
Format: cell-based
Conditions: 100 µM peptide, GFP signal (Fig. S3)
Source text: The selection of mutant ComRs with altered specificity highlighted the utility of the screening system built in E. coli. We attempted to further validate this screening system by cloning a version of S. thermophilus ComR containing five mutations (R92G, V205A, S248G, S289K, and I290T), which was reported to have altered specificity for the 8 amino-acid long XIP from S. vestibularis (VPFFMIYY) ([20]).
ComR sensor circuits were constructed on plasmid pACYC184 (American Type Culture Collection #37033) such that ComR activation promoted GFP expression. This was done by assembling synthetic dsDNA fragments (Integrated DNA Technology) using NEBuilder® HiFi DNA Assembly Master Mix (NEB, E2621S). The full sequence of plasmid pAC-J23107*-ComR, on which the ComR mutant library was made is included in supplemental materials. The ComR mutant (K100NNK) library was created by PCR amplifying all but the K100 codon and then assembling it with degenerate oligos (Integrated DNA Technology) using NEBuilder® HiFi DNA Assembly Master Mix (NEB, E2621S). […] Bacteria were incubated in a large radius shaker (Eppendorf S441) at 37°C for 9 hours, then GFP fluorescence was read using a TECAN Spark 20M plate reader. […]

With “VPFFMIYY [S. vestibularis XIP, 8 amino-acid long XIP from S. vestibularis (VPFFMIYY)]” the “GFP signal of five-mutation ComR with S. vestibularis XIP” value was “only a slight increase in GFP signal”.
